Measured values from patent US11964935B2, “Gingerol derivative having inhibitory activity against biofilm formation and pharmaceutical composition comprising same as effective ingredient for preventing or treating biofilm-caused infection symptom” (Korea University Research and Business Foundation, Sejong …, priority 2017, dated 2024).
“Also recorded” adds a separate entry of the source.

Key:
LasR = molecular target: T1, LasR (Pseudomonas aeruginosa, UniProt P25084); experiment: LasR reporter gene assay (E. coli reporter strain, luminescence, competition with OdDHL); format: cell-based; conditions: compound 1 μM or 10 μM in the presence of 1 μM OdDHL (compound 1a)
T1 construct: expressed in transfected cells; host or cells: E. coli DH5α (printed DHSα) co-transformed with pJN105L and pSC11
T1 sequence (P25084 whole entry): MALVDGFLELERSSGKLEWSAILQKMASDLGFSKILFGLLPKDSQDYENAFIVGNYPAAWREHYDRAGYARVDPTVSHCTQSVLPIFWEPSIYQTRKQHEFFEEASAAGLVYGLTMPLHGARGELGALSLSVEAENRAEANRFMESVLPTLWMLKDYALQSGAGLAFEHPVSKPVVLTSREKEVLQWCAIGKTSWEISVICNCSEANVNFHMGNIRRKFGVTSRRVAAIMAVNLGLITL
Protocol: This assay was conducted by modifying a previously reported method. E. coli DHSα co-transformed with two plasmids, pJN105L (LasR expression plasmid) and pSC11 (lasI::lacZ fusion plasmid), was used as a bioassay reporter strain. Overnight culture of the reporter strain with 10 μg/mL gentamicin and 50 μg/mL ampicillin was diluted in the Luria-Bertani (LB) medium (1:100). Then, the reporter strain (optical density at 595 nm [OD595] was 0.3) mixed with either a positive control or the synthesized compound was incubated with OdDHL (Sigma-Aldrich, St. Louis, MO., USA) and 0.4% arabinose (Sigma-Aldrich). After incubation at 37° C. for 1.5 h, OD595 was measured on a VICTOR ×5 multimode plate reader (PerkinElmer, Waltham, Mass., USA). The β-galactosidase activity was determined using a Tropix plus kit (Applied Biosystems, USA), and luminescence was measured on the VICTOR ×5 multimode plate reader. RLU ratio was quantified by dividing luminescence with OD595.
LasR-binding affinity of the synthesized gingerols (compounds 4-10) with various alkyl chain lengths was determined by measuring luminescence of an E. coli reporter strain. The reporter strain carried two plasmids, pJN105L (LasR expression plasmid) (Lee, J. H.; Lequette, Y.; Greenberg, E. P. Activity of purified QscR, a Pseudomonas aeruginosa orphan quorum-sensing transcription factor. Mol. Microbiol. 2006, 59, 602609.) and pSC11 (las1::lacZ fusion plasmid) (Chugani, S. A.; Whiteley, M.; Lee, K. M.; D'Argenio, D.; Manoil, C.; Greenberg, E. P. QscR, a modulator of quorum-sensing signal synthesis and virulence in Pseudomonas aeruginosa. Proc. Natl. Acad. Sci. U.S.A. 2001, 98, 27522757.), which enabled assay of competitive binding of OdDHL with each gingerol derivative 4-10. Antagonistic activities of the synthesized compounds at 1 μM or 10 μM were determined by measuring luminescence in the presence of 1 μM OdDHL (compound 1a) and presented as relative luminescence unit (RLU) ratio. Three compounds (compounds 1b, 1c, and 1d) served as positive controls. […] Just as the LasR inhibition, inhibition of biofilm formation also strengthened as the carbon chain was extended at 10 μM ((B) of FIG. 3). However, inhibition of biofilm formation decreased with 9-gingerol (compound 9) and 10-gingerol (compound 10) at 100 μM ((C) of FIG. 3) because of increased bacterial growth inhibition. […] This effect may be due to the fact that compounds 9 and 10 act as a surfactant, which inhibits bacterial growth. Agonistic activities of compounds 4-10 in an E. coli reporter assay system in the absence of OdDHL were next examined.

P. aeruginosa PA14 = experiment: Static biofilm formation assay; format: cell-based, Pseudomonas aeruginosa; conditions: 10 μM, 24 h, static
Protocol: Overnight culture of P. aeruginosa PA14 (OD595=1.0) was diluted (1:20) with the AB medium (300 mM NaCl, 50 mM MgSO4, 0.2% vitamin-free casamino acids, 10 mM potassium phosphate, 1 mM L-arginine, and 1% glucose, pH 7.5) (1:20) containing with either positive controls or synthesized compounds (0-100 μM). The dilutions were aliquoted into borosilicate bottles, and the bottles were incubated at 37° C. for 24 h without agitation. After that, OD595 of the cell suspension was measured on the VICTOR ×5 multimode plate reader. The biofilm cells attached to the bottle were washed two times with phosphate buffered saline (PBS; 137 mM NaCl, 2.7 mM KCl, 10 mM Na2HPO4, and 2 mM KH2PO4, pH 7.2) and stained with 0.1% crystal violet for […] Next, the stained biofilm cells were eluted with 100% ethyl alcohol, and OD540 was measured on the VICTOR ×5 multimode plate reader. The biofilm formation was quantified by dividing OD540 with OD595.

## CCCCCCCCCC(=O)/C=C/c1ccc(O)c(OC)c1 [Compound 23b, (E)-1-(4-Hydroxy-3-methoxyphenyl)dodec-1-en-3-one]
LasR
  LasR-antagonistic activity / LasR-binding affinity (RLU ratio), in words: significantly weaker LasR-binding affinity
P. aeruginosa PA14
  Inhibition of biofilm formation, in words: less inhibition of biofilm formation

## CCCCCCCC(O)CC(=O)CCc1ccc(F)cc1 (centres unmarked) [Compound 17b, 1-(4-Fluorophenyl)-5-hydroxydodecan-3-one]
LasR
  LasR-antagonistic activity / LasR-binding affinity (RLU ratio), in words: the most potent among the synthesized compounds
P. aeruginosa PA14
  Inhibition of biofilm formation, in words: the most potent in the series; also recorded: stronger inhibition of biofilm formation than the known anti-biofilm agent (S)-6-gingerol

## CCCCCC(O)CC(=O)/C=C/c1ccc(O)c(OC)c1 (centres unmarked) [Compound 21a, (E)-5-Hydroxy-1-(4-hydroxy-3-methoxyphenyl)dec-1-en-3-one]
LasR
  LasR-antagonistic activity / LasR-binding affinity (RLU ratio), in words: slightly stronger LasR affinity

## CCCCCCCC(=O)CCc1ccc(O)c(OC)c1 [Compound 24a, 1-(4-Hydroxy-3-methoxyphenyl)decan-3-one]
LasR
  LasR-antagonistic activity / LasR-binding affinity (RLU ratio), in words: significantly weaker LasR-binding affinity
P. aeruginosa PA14
  Inhibition of biofilm formation, in words: less inhibition of biofilm formation

## CCCCCCC[C@@H](O)CC(=O)CCc1ccc(O)c(OC)c1 [Compound 29, (R)-5-Hydroxy-1-(4-hydroxy-3-methoxyphenyl)dodecan-3-one]
LasR
  LasR-antagonistic activity / LasR-binding affinity (RLU ratio), in words: intermediate LasR-affinity between compound 8 and compound 42

## CCCCCCCC(O)CC(=O)CCc1ccc(F)c(OC)c1 (centres unmarked) [Compound 16b, 1-(4-Fluoro-3-methoxyphenyl)-5-hydroxydodecan-3-one]
P. aeruginosa PA14
  Inhibition of biofilm formation, in words: the most potent in the series; also recorded: stronger inhibition of biofilm formation than the known anti-biofilm agent (S)-6-gingerol

## CCCCCCCC(O)CC(=O)CCc1ccc(O)cc1 (centres unmarked) [Compound 18b, 5-Hydroxy-1-(4-hydroxyphenyl)dodecan-3-one]
LasR
  LasR-antagonistic activity / LasR-binding affinity (RLU ratio), in words: the most potent among the synthesized compounds
P. aeruginosa PA14
  Inhibition of biofilm formation, in words: the most potent in the series; also recorded: stronger inhibition of biofilm formation than the known anti-biofilm agent (S)-6-gingerol

## CCCCCC(O)CC(=O)CCc1cccc(OC)c1 (centres unmarked) [Compound 20a, 5-Hydroxy-1-(3-methoxyphenyl)decan-3-one]
LasR
  LasR-antagonistic activity / LasR-binding affinity (RLU ratio), in words: decreased the LasR-antagonistic activity

## CCCCCCCC(O)CC(=O)CCc1ccc(O)c(OC)c1 (racemic) [Compound 8, 5-Hydroxy-1-(4-hydroxy-3-methoxyphenyl)dodecan-3-one]
LasR
  LasR-antagonistic activity / LasR-binding affinity (RLU ratio), in words: slightly more potent

## CCCCCC(O)CC(=O)CCc1ccccc1 (centres unmarked) [Compound 15a, 5-Hydroxy-1-phenyldecan-3-one]
LasR
  LasR-antagonistic activity / LasR-binding affinity (RLU ratio), in words: significantly decreased the LasR-antagonistic activity

## CCCCCCCC(=O)/C=C/c1ccc(O)c(OC)c1 [Compound 23a, (E)-1-(4-Hydroxy-3-methoxyphenyl)dec-1-en-3-one]
LasR
  LasR-antagonistic activity / LasR-binding affinity (RLU ratio), in words: significantly weaker LasR-binding affinity
P. aeruginosa PA14
  Inhibition of biofilm formation, in words: less inhibition of biofilm formation

## CCCCCC(O)CC(=O)CCc1ccc(F)c(OC)c1 (centres unmarked) [Compound 16a, 1-(4-Fluoro-3-methoxyphenyl)-5-hydroxydecan-3-one]
LasR
  LasR-antagonistic activity / LasR-binding affinity (RLU ratio), in words: preserved the LasR-inhibitory activity
P. aeruginosa PA14
  Inhibition of biofilm formation, in words: the most potent in the series

## CCCCCC(O)CC(=O)CCc1ccc(O)cc1 (centres unmarked) [Compound 18a, 5-Hydroxy-1-(4-hydroxyphenyl)decan-3-one]
LasR
  LasR-antagonistic activity / LasR-binding affinity (RLU ratio), in words: increased the LasR-antagonistic activity
P. aeruginosa PA14
  Inhibition of biofilm formation, in words: the most potent in the series

## CCCCCCCC(O)CC(=O)CCc1ccccc1 (centres unmarked) [Compound 15b, 5-Hydroxy-1-phenyldodecan-3-one]
LasR
  LasR-antagonistic activity / LasR-binding affinity (RLU ratio), in words: relatively weaker than those of the other compounds

## CCCCCCCCCC(=O)CCc1ccc(O)c(OC)c1 [Compound 24b, 1-(4-Hydroxy-3-methoxyphenyl)dodecan-3-one]
LasR
  LasR-antagonistic activity / LasR-binding affinity (RLU ratio), in words: significantly weaker LasR-binding affinity
P. aeruginosa PA14
  Inhibition of biofilm formation, in words: less inhibition of biofilm formation

## CCCCCCCC(O)CC(=O)CCc1cccc(OC)c1 (centres unmarked) [Compound 20b, 5-Hydroxy-1-(3-methoxyphenyl)dodecan-3-one]
LasR
  LasR-antagonistic activity / LasR-binding affinity (RLU ratio), in words: relatively weaker than those of the other compounds

## CCCCCC(O)CC(=O)CCc1ccc(O)c(OC)c1 (racemic) [Compound 6, 5-Hydroxy-1-(4-hydroxy-3-methoxyphenyl)decan-3-one]
LasR
  LasR-antagonistic activity / LasR-binding affinity (RLU ratio), in words: slightly more potent

## CCCCCCCC(O)CC(=O)/C=C/c1ccc(O)c(OC)c1 (racemic) [Compound 21b, (E)-5-Hydroxy-1-(4-hydroxy-3-methoxyphenyl)dodec-1-en-3-one]
LasR
  LasR-antagonistic activity / LasR-binding affinity (RLU ratio), in words: slightly stronger LasR affinity; also recorded: more potent than compound 1c

## CCCCCC(O)CC(=O)CCc1ccc(F)cc1 (centres unmarked) [Compound 17a, 1-(4-Fluorophenyl)-5-hydroxydecan-3-one]
LasR
  LasR-antagonistic activity / LasR-binding affinity (RLU ratio), in words: preserved the LasR-inhibitory activity
P. aeruginosa PA14
  Inhibition of biofilm formation, in words: the most potent in the series

## CCCCCCCC(O)CC(=O)CCc1ccc(O)c(OC)c1 [Compound 42S, (S)-8-gingerol]
LasR
  LasR-antagonistic activity / LasR-binding affinity (RLU ratio), in words: almost the same as that of commercial (S)-8-gingerol
